Measurements reported in PubChem BioAssay AID179 (DTP/NCI, 2004).
The source made the active and inactive calls.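 Rule for the calls: active = compounds giving half or more protection of infected cells from virus-caused growth loss, again on retest; inactive = the rest.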

System: CEM cells HIV-1 protection, formazan growth assay
Experiment: NCI AIDS Antiviral Assay
Settings: for IC50: measured here: growth of uninfected CEM cells
Outline: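 Steps: treat uninfected and HIV-1-infected human CEM cells at five drug levels; quantify growth by soluble formazan; retest any compound reaching 50% protection; classify actives from the retest.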

Row | SMILES | EC50 [µM] | IC50 [µM] | outcome
1 | O=c1[nH]c2ccccc2nc1/C=C(\O)C(F)F | > 200 | > 200 | –
2 | O=C(CNC(=O)Nc1ccc(NC(=O)NCC(=O)Nc2ccc(C3=NCCN3)cc2)cc1)Nc1ccc(C2=NCCN2)cc1 | 81.3 | > 200 | –
3 | Cc1ccc(S(=O)(=O)OCC2OC(OC3(CO)OC(COS(=O)(=O)c4ccc(C)cc4)C(O)C3O)C(O)C(O)C2O)cc1 (stereo not drawn) | > 200 | > 200 | –
4 | CC(C)(C)OC(=O)NC(Cc1ccc(OC(C)(C)C)cc1)C(=O)N[C@H]1CC[C@H](C(=O)O)C1 (stereo partly drawn) | – | – | inactive
5 | NC(=O)c1nnsc1NN=O | > 200 | > 200 | –
6 | COC(=O)C(Cc1nc2ccccc2[nH]c1=O)C(=O)C(=O)Nc1ccc(F)cc1 (stereo not drawn) | > 91.2 | 16.2 | –
7 | Cn1cc(NC(=O)Nc2cc(C(=O)Nc3cc(C(=O)Nc4cc(P(=O)(O)O)c5cccc(P(=O)(O)O)c5c4)n(C)c3)n(C)c2)cc1C(=O)Nc1cc(C(=O)Nc2cc(P(=O)(O)O)c3cccc(P(=O)(O)O)c3c2)n(C)c1 | 89.1 | 126 | –
8 | CSc1nnc(SC)c2[nH]cnc12 | > 200 | > 200 | –
9 | CN(C)CCNC(=O)c1cccc(N(C)C(=O)c2ccccc2)c1[N+](=O)[O-] | > 200 | > 200 | –
10 | COC1(OC)CCN(Cc2ccccc2)C1=O | > 20 | 2.69 | –
11 | CCOC(=O)C(=O)Nc1ccc(C)cc1C | > 1120 | 646 | –
12 | CNCc1c(S)ccc2ccccc12 | – | – | inactive
13 | CSc1nc2c(nc(N)n2C2OC(CO)C(O)C(O)C2O)c(=O)[nH]1 (stereo not drawn) | – | – | inactive
14 | CN(C)c1ccc(C=Nc2ccc(/C=C3\C=Cc4ccccc43)cc2)cc1 | > 20.4 | > 20.4 | –
15 | O=c1c2ccccc2nc(-c2cccc(Cl)c2)n1NCC1(O)OCC(O)C(O)C1O (stereo not drawn) | – | – | inactive
16 | Cc1cc(=O)[nH]c(=S)n1-c1nc2ccccc2o1 | > 115 | > 115 | –
17 | CC1=C2C(=CO[C@H](C)[C@H]2C)C(=O)C(C(=O)O)=C1O | > 145 | 25.1 | –
18 | O=C1OC2(c3ccc(O)cc3Oc3cc(O)ccc32)c2ccccc21 | > 50.1 | > 50.1 | –
19 | O=c1[nH]ccc2c1ccn2C1CC(O)C(CO)O1 (stereo not drawn) | – | – | inactive
20 | O=c1[nH]c(=O)n2n1C1C=CC2CC1 | > 200 | > 200 | –
21 | CCN(CC)c1ccc(N=C2C=C(Cl)C(=O)c3ncccc32)c(C)c1 | – | – | inactive

Row | SMILES | EC50 [µM] | IC50 [µM] | outcome
22 | Cn1cc2ccccc2c1-c1nc(F)nc(Oc2ccc3c(c2)CC[C@@H]2C3CC[C@]3(C)C(O)CCC23)n1 (stereo partly drawn) | > 5.5 | > 5.5 | –
23 | Cc1c([N+](=O)[O-])ccc2c(NCCCN(C)C)ccnc12 | > 200 | 19.1 | –
24 | [O-][n+]1c(-c2ccccc2)c2nc3ccccc3nc2c2ccccc21 | > 39.8 | > 39.8 | –
25 | CC(C)C12OC1CC13OC1C1OC1C1OC132 (stereo not drawn) | > 200 | > 200 | –
26 | CC(C)c1c(P(=O)(c2ccccc2)c2ccccc2)n(C)c2ccccc12 | > 100 | 41.7 | –
27 | Cc1nc(Nc2ccccc2)sc1C(=O)NNC(N)=O | > 151 | 63.1 | –
28 | CCCCCCCCc1cc2c(O)c(c1)Cc1cc(CCCCCCCC)cc(c1O)Cc1cc(CCCCCCCC)cc(c1O)Cc1cc(CCCCCCCC)cc(c1O)Cc1cc(CCCCCCCC)cc(c1O)Cc1cc(CCCCCCCC)cc(c1O)C2 | – | – | inactive
29 | O=C1C(NS(=O)(=O)c2ccccc2)=C(n2cnc3ccccc32)C(=O)c2ccccc21 | > 200 | 145 | –
30 | CCCCCCCCCCCCCC1=NCC(C)(C)N1 | > 93.3 | 20.4 | –
31 | N=c1ccn2c(n1)OC1C(OC(=O)C34CC5CC(CC(C5)C3)C4)C(COC(=O)C34CC5CC(CC(C5)C3)C4)OC12 (stereo not drawn) | – | – | inactive
32 | Cc1ccc(S(=O)OC2C3CC4CC(C3)CC2C4)cc1 (stereo not drawn) | – | – | inactive
33 | NC(CCCCCP(=O)(c1ccccc1)C1C=CC=CC1)C(=O)O (stereo not drawn) | > 200 | > 200 | –
34 | Cc1ccc(-n2c(=S)n(-c3ccccc3C)c3nc4ccccc4nc2/c3=N\Nc2ccc(Cl)cc2)cc1 | 117 | 123 | –
35 | O=C(O)/C(Cl)=C(Cl)/C=N/NC(=O)c1cc2ccccc2cc1O | > 102 | 5.75 | –
36 | COC(=O)C[CH](C(=O)OC)[Ge]([CH3])([CH3])[S]c1ccccc1 (stereo not drawn) | > 100 | 18.2 | –
37 | CCP(=O)(CC)C(Cl)(Cl)C(O)C(C)(C)C (stereo not drawn) | > 200 | > 200 | –
38 | CC1=CC(C)(C)Nc2ccccc2N1 | > 200 | > 200 | –
39 | CCOC(=O)/C(=C/c1ccc(OC)c(OC)c1)C(=O)c1ccccc1 | > 75.9 | 40.7 | –
40 | COc1nc(N2CCNCC2)nc2c1CCCC2 | – | – | inactive
41 | CC1(C)OC(=O)C2(O1)C(=O)C1CCCCC12 (stereo not drawn) | > 200 | > 200 | –
42 | COC(=O)c1ccccc1CC(Cc1ccc2c(c1)CCC2)C(=O)OC (stereo not drawn) | > 200 | 56.2 | –

Row | SMILES | EC50 [µM] | IC50 [µM] | outcome
43 | O=c1c2cc(S(=O)(=O)Nc3c(Cl)cccc3Cl)ccc2ncn1NS(=O)(=O)c1ccc2ccccc2c1 | > 200 | 37.2 | –
44 | COC[C@@H](N=CN1CCc2ccccc2C1)c1ccccc1 | > 324 | > 324 | –
45 | C[C@H]1ON2CCC[C@@H]2[C@@H]1C(=O)N1C2CC3CCC2(CS1(=O)=O)C3(C)C (stereo partly drawn) | > 200 | > 200 | –
46 | CCOC(=O)c1ccc(NCc2ccc3oc(=O)c(-c4ccccc4)nc3c2)cc1 | > 135 | 38.9 | –
47 | CCC12OC(=O)C34CC(C(=O)N(CCc5c3[nH]c3ccccc53)C41)C2I (stereo not drawn) | – | – | inactive
48 | NC(CSS(=O)(=O)O)=NCCc1ccc(O)cc1 | > 200 | > 200 | –
49 | COc1cc2c(c3[nH]cc(C(=O)O)c(=O)c13)NC(=O)CS2 | > 200 | > 200 | –
50 | O=c1c2ccccc2sc2nc(CCl)nn12 | > 355 | 57.5 | –
51 | C[C@@H](NS(=O)(=O)c1ccc(NC(=O)c2ccccc2)cc1)C(=O)O | – | – | inactive
52 | O=C(O)c1cc(O)c(Br)c(O)c1N=Nc1ccc(/C=C/c2ccc(N=Nc3c(C(=O)O)cc(O)c(Br)c3O)cc2S(=O)(=O)O)c(S(=O)(=O)O)c1 | 166 | > 200 | –
53 | OC1(c2ccccc2)CSc2ncnn21 (stereo not drawn) | 138 | > 200 | –
54 | CC1(C)Cc2ccccc2C(C)(Cl)C(=O)N1 (stereo not drawn) | 191 | > 200 | –
55 | C1=CN2CCCN3C=CC=c4ccc(c2c43)=C1 | > 200 | 110 | –
56 | O=C1OC(=O)c2c1ccc1ccccc21 | > 50.1 | > 50.1 | –
57 | CCCCCCCCCCN=C(N)CSSCC(N)=NCCCCCCCCCC | > 200 | 16.6 | –
58 | O=C(CCl)Nc1ccccc1-c1ccccc1NC(=O)CCl | – | – | inactive
59 | Cc1ccc(C2=Nn3c(nc4sc(-c5ccccc5)cc4c3=O)SC2)cc1 | > 100 | > 100 | –
60 | Cc1c(Cl)ccc2c1NC(=O)C2(O)CC(=O)c1ccc(Cl)cc1Cl (stereo not drawn) | > 0.708 | > 0.708 | –
61 | CCOC(=O)N1C(=S)C(C(=O)OC)(C(=O)OC)N=C1C | > 200 | > 200 | –
62 | Cc1ccc2nc(-c3ccc(N=Nc4cc(S(=O)(=O)O)c5ccccc5c4O)cc3)sc2c1S(=O)(=O)O | > 50.1 | > 50.1 | –
63 | COc1ccccc1/C=C/C(=O)c1ccccc1 | > 57.5 | 11.2 | –

Row | SMILES | EC50 [µM] | IC50 [µM] | outcome
64 | CS/C(=N\N=C(/C)c1ccccn1)N1CCN(c2ccccn2)CC1 | > 123 | 17.4 | –
65 | CN(C)c1ccc(/C=N/n2c(-c3ccccc3)nc3ccccc3c2=O)cc1 | > 200 | 33.9 | –
66 | COc1cc(C)cc2c(-c3c(O)cc(O)c4c3C[C@H](C)N[C@H]4C)cc(-c3cc(-c4c(O)cc(O)c5c4C[C@H](C)N[C@H]5C)c4cc(C)cc(OC)c4c3O)c(O)c12 | 14.1 | 95.5 | –
67 | CC1(C)CN=C(Nc2ccc(F)c(Cl)c2)S1 | > 200 | > 200 | –
68 | CCCCCCCCCCCCCCCCCCSCC(C)(COP(=O)(O)OP(=O)(O)OCC1OC(n2cc(C)c(=O)[nH]c2=O)CC1N=[N+]=[N-])OC(=O)CCCCCCCCCCCCCCC (stereo not drawn) | 3.24 | 60.3 | –
69 | Nc1nc(Cl)cc(N=Nc2ccccc2)n1 | > 200 | 11.5 | –
70 | O=C(O)C1C(c2c3ccc(=O)c(O)c-3oc3c(O)c(O)ccc23)C2(Cl)C(Cl)=C(Cl)C1(Cl)C2(Cl)Cl (stereo not drawn) | > 151 | > 151 | –
71 | O=C1NC2c3c(I)sc(I)c3C(O)C2O1 (stereo not drawn) | > 200 | 141 | –
72 | COc1ccc(/C=C/C(=O)C(C)C)cc1 | > 200 | 33.9 | –
73 | O=S(=O)(O)c1cc(N=Nc2ccc(O)cc2)ccc1/C=C/c1ccc(N=Nc2ccc(O)cc2)cc1S(=O)(=O)O | > 50.1 | 45.7 | –
74 | O=C(NCCCCCN1CCC2(CCCCC2)CC1)C(C1CCCCC1)C1CCCCC1 | > 100 | 9.33 | –
75 | N#Cc1cccc(C2C(=O)c3ccc(C(=O)c4ccc5c(c4)C(=O)N(c4ccc(Oc6ccc(N7C(=O)c8ccc(C(=O)c9ccc%10c(c9)C(=O)N(c9cccc(C#N)c9)C%10=O)cc8C7=O)cc6)cc4)C5=O)cc3C2=O)c1 (stereo not drawn) | > 3.47 | > 3.47 | –
76 | CCC[CH2][Sn]1([CH2]CCC)[O]C(=O)c2ccc(C)cc2[O]1 | – | – | inactive
77 | O=C1O/C(=C2\OCc3ccccc32)c2ccccc21 | > 151 | > 151 | –
78 | CSC1=N[C@H](c2ccccc2)CS1 | > 200 | > 200 | –
79 | CCOC(=O)C(CSSCC(NC(C)=O)C(=O)OCC)NC(C)=O (stereo not drawn) | 81.3 | 141 | –
80 | CCc1ccc([OH2+])c(C(=O)[O-])c1.CCc1ccc([OH2+])c(C(=O)[O-])c1.CCc1ccc([OH2+])c(C(=O)[O-])c1.CCc1ccc([OH2+])c(C(=O)[O-])c1.[Cu+2].[Cu+2] | > 200 | 23.4 | –
81 | CCN=C(NC(=O)c1ccccc1Cl)SCSC(=NCC)NC(=O)c1ccccc1Cl | > 200 | > 200 | –
82 | CC1Cc2cc(OCc3ccccc3)cc(OCc3ccccc3)c2[C@H](C)N1Cc1ccccc1 (stereo partly drawn) | > 200 | 14.5 | –
83 | Cc1ccc(S(=O)(=O)SC(S(=O)(=O)c2ccc(C)cc2)S(=O)(=O)c2ccc(C)cc2)cc1 | > 355 | 148 | –
84 | Cn1c2c(c3ccccc31)C1CCCCC1C1C(=O)NC(=O)C21 (stereo not drawn) | – | – | inactive
